Legend:
Conditions in all cases: exposure time: 72 h
E13 [1] = patient-derived glioblastoma stem cells of classical subtype; assay: surviving fraction (nuclei count normalised to DMSO); higher = more cells surviving (less toxic)
E21 [2] = patient-derived glioblastoma stem cells of mesenchymal subtype; assay: as above
E28 [3] = patient-derived glioblastoma stem cells of classical subtype; assay: as above
E31 [4] = patient-derived glioblastoma stem cells of proneural subtype; assay: as above
E34 [5] = patient-derived glioblastoma stem cells of proneural subtype; assay: as above
E57 [6] = patient-derived glioblastoma stem cells of mesenchymal subtype; assay: as above
FT3469 [7] = normal neural stem cell line; assay: as above
E13 [8] = assay: phenotypic distance (Euclidean, principal components) from DMSO controls (arbitrary units); higher = stronger morphological change
E21 [9] = assay: as above
E28 [10] = assay: as above
E31 [11] = assay: as above
E34 [12] = assay: as above
E57 [13] = assay: as above
FT3469 [14] = assay: as above
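For phenotypic distance (Euclidean, principal components) from DMSO controls in this document: cell Painting imaging in 384-well plates, CellProfiler features reduced to at least 20 principal components, Euclidean distance versus same-plate DMSO vehicle wells (0.1% v/v), median over six images per well.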
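For surviving fraction (nuclei count normalised to DMSO) in this document: nuclei counted by high-content imaging of Hoechst-stained cells in laminin-coated 384-well plates, relative to 0.1% DMSO vehicle wells, with staurosporine as cell-death control.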

CC(C)(C)C1CCN(C(=O)n2ncc(C(O)(c3ccccc3)c3ccccc3)n2)CC1 [ML211]
Conditions	phenotypic distance	surviving fraction
E13 [1], 4.1 nM	–	0.909
E13 [1], 12.3 nM	–	0.883
E13 [1], 37 nM	–	0.918
E13 [1], 111.1 nM	–	0.985
E13 [1], 333.3 nM	–	0.984
E13 [1], 1000 nM	–	0.975
E13 [1], 3000 nM	–	0.916
E13 [8], 4.1 nM	0.844	–
E13 [8], 12.3 nM	0.731	–
E13 [8], 37 nM	0.757	–
E13 [8], 111.1 nM	0.461	–
E13 [8], 333.3 nM	0.703	–
E13 [8], 1000 nM	0.699	–
E13 [8], 3000 nM	0.911	–
E21 [2], 4.1 nM	–	0.93
E21 [2], 12.3 nM	–	0.888
E21 [2], 37 nM	–	0.946
E21 [2], 111.1 nM	–	0.8973
E21 [2], 333.3 nM	–	0.973
E21 [2], 1000 nM	–	0.9031
E21 [2], 3000 nM	–	0.889
E21 [9], 4.1 nM	0.863	–
E21 [9], 12.3 nM	0.923	–
E21 [9], 37 nM	0.671	–
E21 [9], 111.1 nM	0.652	–
E21 [9], 333.3 nM	0.683	–
E21 [9], 1000 nM	0.885	–
E21 [9], 3000 nM	0.961	–
E28 [3], 4.1 nM	–	1.09
E28 [3], 12.3 nM	–	1
E28 [3], 37 nM	–	1
E28 [3], 111.1 nM	–	1
E28 [3], 333.3 nM	–	0.987
E28 [3], 1000 nM	–	0.9874
E28 [3], 3000 nM	–	0.883
E28 [10], 4.1 nM	0.935	–
E28 [10], 12.3 nM	0.886	–
E28 [10], 37 nM	0.733	–
E28 [10], 111.1 nM	0.678	–
E28 [10], 333.3 nM	0.596	–
E28 [10], 1000 nM	0.668	–
E28 [10], 3000 nM	1.42	–
E31 [4], 4.1 nM	–	0.9689
E31 [4], 12.3 nM	–	0.979
E31 [4], 37 nM	–	0.993
E31 [4], 111.1 nM	–	0.928
E31 [4], 333.3 nM	–	1.04
E31 [4], 1000 nM	–	0.973
E31 [4], 3000 nM	–	0.823
E31 [11], 4.1 nM	0.563	–
E31 [11], 12.3 nM	0.567	–
E31 [11], 37 nM	0.644	–
E31 [11], 111.1 nM	0.641	–
E31 [11], 333.3 nM	1.05	–
E31 [11], 1000 nM	0.871	–
E31 [11], 3000 nM	1.12	–
E34 [5], 4.1 nM	–	0.956
E34 [5], 12.3 nM	–	0.941
E34 [5], 37 nM	–	0.95
E34 [5], 111.1 nM	–	0.868
E34 [5], 333.3 nM	–	0.976
E34 [5], 1000 nM	–	0.965
E34 [5], 3000 nM	–	0.8932
E34 [12], 4.1 nM	1.21	–
E34 [12], 12.3 nM	0.912	–
E34 [12], 37 nM	1.05	–
E34 [12], 111.1 nM	0.782	–
E34 [12], 333.3 nM	0.763	–
E34 [12], 1000 nM	0.734	–
E34 [12], 3000 nM	0.728	–
E57 [6], 4.1 nM	–	0.995
E57 [6], 12.3 nM	–	1
E57 [6], 37 nM	–	0.9744
E57 [6], 111.1 nM	–	1.02
E57 [6], 333.3 nM	–	0.964
E57 [6], 1000 nM	–	0.974
E57 [6], 3000 nM	–	0.894
E57 [13], 4.1 nM	0.588	–
E57 [13], 12.3 nM	0.447	–
E57 [13], 37 nM	0.552	–
E57 [13], 111.1 nM	0.483	–
E57 [13], 333.3 nM	0.642	–
E57 [13], 1000 nM	0.6	–
E57 [13], 3000 nM	0.835	–
FT3469 [7], 4.1 nM	–	0.879
FT3469 [7], 12.3 nM	–	1.008
FT3469 [7], 37 nM	–	0.989
FT3469 [7], 111.1 nM	–	0.934
FT3469 [7], 333.3 nM	–	0.885
FT3469 [7], 1000 nM	–	0.816
FT3469 [7], 3000 nM	–	0.817
FT3469 [14], 4.1 nM	1.1	–
FT3469 [14], 12.3 nM	0.699	–
FT3469 [14], 37 nM	0.637	–
FT3469 [14], 111.1 nM	0.748	–
FT3469 [14], 333.3 nM	0.841	–
FT3469 [14], 1000 nM	1.25	–
FT3469 [14], 3000 nM	1.74	–

— the supplement of paper PMC13207355
